{"source": "patent US11471534B2", "about": "“Chitosan-pluronic complex and nano-carrier comprising same” (KOREA INSTITUTE OF CERAMIC ENGINEERING AND TECHNOLOGY, priority 2017, dated 2022)", "assay": "Distribution of model drug (Nile red) in skin, fluorescence microscope on cryo-sections", "format": "in vitro ADME, human", "conditions": "after the skin penetration experiment, 20 μm cryo-sections", "experimental": "After completing a skin penetration experiment of the drugs, skins were fixed in a […] neutral formalin solution for 12 hours or more to confirm how the drugs were distributed in the skins. After mixing the fixed skins with an OCT compound, allowing OCT compound-mixed skins to be frozen in liquid nitrogen of −20° C. or less, and cutting the frozen skins to a thickness of 20 μm through a cryo-section device (−25° C.), sampling was made by attaching the cut skins to glass. After washing samples with deionized water and observing distribution statuses of a model drug (Nile red) in the skins with a fluorescence microscope, observation results are illustrated in FIG. 10.", "data": [{"smiles": "CCN(CC)c1ccc2nc3c4ccccc4c(=O)cc-3oc2c1", "note": "[Nile red]", "values": [{"measurement": "distribution of model drug (Nile red) in the skin", "value": "collected in stratum corneum"}]}]}
